Experimental data published in ChEMBL document CHEMBL1149623, “Identification of antibacterial and antiviral activities of novel fused 1,2,4-triazine esters” (2007).

Key:
Assay type in all cases: functional
[1] = system: Escherichia coli; test: Antibacterial activity against Escherichia coli ATCC 25922 at 100 mg/mL after 24 hrs by disc diffusion method
[2] = system: Staphylococcus aureus; test: Antibacterial activity against Staphylococcus aureus ATCC 25923 at 100 mg/mL after 24 hrs by disc diffusion method
[3] = system: Streptococcus pyogenes; test: Antibacterial activity against Streptococcus pyogenes at 100 mg/mL after 24 hrs by disc diffusion method
[4] = system: Staphylococcus epidermidis; test: Antibacterial activity against Staphylococcus epidermidis at 100 mg/mL after 24 hrs by disc diffusion method
[5] = system: Escherichia coli; test: Antibacterial activity against Escherichia coli ATCC 25922 at 200 mg/mL after 24 hrs by disc diffusion method
[6] = system: Streptococcus pyogenes; test: Antibacterial activity against Streptococcus pyogenes at 200 mg/mL after 24 hrs by disc diffusion method
[7] = system: Staphylococcus aureus; test: Antibacterial activity against Staphylococcus aureus ATCC 25923 at 200 mg/mL after 24 hrs by disc diffusion method
[8] = system: Staphylococcus epidermidis; test: Antibacterial activity against Staphylococcus epidermidis at 200 mg/mL after 24 hrs by disc diffusion method

Structure (SMILES) | Inhibition [1] [mm] | Inhibition [2] [mm] | Inhibition [3] [mm] | Inhibition [4] [mm] | Inhibition [5] [mm] | Inhibition [6] [mm] | Inhibition [7] [mm] | Inhibition [8] [mm]
COC(=O)CC1NN=C2N(CCN2c2ccc(Cl)cc2)C1=O (centres undefined) | <9 | 10 | 16 | 16 | – | – | – | –
CCOC(=O)CC1NN=C2N(CCN2c2ccc(OC)cc2)C1=O (centres undefined) | 16 | <9 | >20 | <9 | – | – | – | –
CCOC(=O)CC1NN=C2N(CCN2c2cccc(Cl)c2)C1=O (centres undefined) | >20 | 10 | >20 | <9 | – | – | – | –
COC(=O)CC1NN=C2N(CCN2c2ccccc2)C1=O (centres undefined) | <9 | 10 | >20 | 16 | – | – | – | –
COC(=O)CC1NN=C2N(CCN2c2ccc(OC)cc2)C1=O (centres undefined) | >20 | 10 | >20 | 16 | – | – | – | –
CC1(C)S[C@@H]2[C@H](NC(=O)[C@H](N)c3ccccc3)C(=O)N2[C@H]1C(=O)O [AMPICILLIN] | – | – | – | – | 16 | 16 | 16 | 10
